Test results as given in publication PMC12466451 (Antibiotics, 2025).

Assay: Surfactin C metabolism study: metabolic stability in liver microsomes with NADPH
Assay type: in vitro ADME, chicken
Conditions: for percentage of initial concentration remaining after incubation with microsomes: chicken liver microsomes 0.5 mg/mL, NADPH, 1.0 µM, 37 °C, 120 min; for t1/2 / k (elimination rate constant): chicken liver microsomes; for t1/2: t1/2 = ln(2)/k; for k (elimination rate constant): slope of ln-concentration versus time plot, 0-120 min
Experimental: After determining the presence of surfactin C analogues in F1, BPR-17 and BPR-16, an in vitro metabolism assay was conducted to investigate the bioavailability and stability of these compounds. This study involved incubating the bioactive metabolites with liver microsomes obtained from chickens to predict and evaluate their potential efficacy and bioavailability once digested. The microsomal assay was performed by first harvesting the chicken microsomes from the liver. Once obtained, these were incubated with the surfactin C compounds in the presence of NADPH, which serves as an essential cofactor for cytochrome P450 enzymes. The degradation of surfactin C analogues over time was monitored by measuring their peak areas using LC-MS/MS [29]. Additionally, a positive control compound (verapamil) was used to confirm the metabolic activity of the liver microsomes.
Preparation of microsomes from liver tissue was performed according to the protocols developed by Knights et al. 2016 [45]. Livers from chickens approximately 42 days old were obtained from Golden Cockerel poultry processors (Mount Cotton, QLD, Australia). Immediately after harvesting, the livers were washed in 1.15% KCl in lab grade H2O to remove excess blood and transported to the laboratory on ice for processing. To prepare the microsomes, 10 g of liver tissue was homogenized in buffer (10 mM potassium phosphate, pH 7.4) using an Ultraturrax-style homogeniser with three 30-s bursts, cooling the sample on ice between each burst. The homogenate was then centrifuged at 7000× g for 10 min at 4 °C. The crude pellet was discarded, and the supernatant was further separated by ultracentrifugation at 105,000× g for 60 min at 4 °C. The supernatant was decanted, and the pellet was rinsed with 1 mL of microsome buffer. The rinsing and ultracentrifugation process was repeated twice, and the resulting pellet was resuspended in microsome storage buffer and stored at −80 °C until further use. A Bradford assay was used to determine the concentration of the protein in the sample [46].
The test compounds C13-C1_6 surfactin C (10.0 mM) were prepared in DMSO, and the metabolic stability of test compounds was determined in triplicate in an oscillating water bath (Grant) at 37 °C and 150 RPM [25]. Positive control (verapamil; 0.001 mM) and negative control (without NADPH regeneration system) incubations were conducted concurrently. Tubes containing potassium phosphate buffer (100 mM) at pH 7.4, microsomal protein stock solution (0.5 mg/mL), test compound solution (1.0 µM) and glucose-6-phosphate dehydrogenase (1 IU/mL) were preincubated at 37 °C for 5 min prior to the reaction being initiated by the addition of 25 µL of a 20× stock of an NADPH regeneration system (NRS) containing NADP (1.3 mM). The total incubation volume was 0.5 mL. The mixture was then incubated at 37 °C in an oscillating water bath (Grant) at 150 RPM for 0, 10, 20, 30, 60, and 120 min. At each time point, reactions were terminated by the addition of 150 µL of ice-cold acetonitrile containing cyclosporin A (60 ng/mL) as an internal standard for test compounds or clotrimazole (50 ng/mL) for verapamil. The test tubes were centrifuged at 13,000× g for 5 min, and ~100 µL of supernatant was transferred to polypropylene 96-well plates for LC-MS/MS analysis using a Waters ALLIANCE HPLC system coupled to a Waters Quattro Micro triple quadrupole mass spectrometer (Milford, MA, USA). Chromatographic separation was achieved using a Phenomenex HPLC C18 column (4.6 × 50 mm, 3 µm). Mass spectrometric detection was performed in negative ion multiple reaction monitoring mode with argon as the collision gas. Data acquisition and processing were carried out using MassLynx software (version 4.1, Waters). The half-life (t1/2) of each test compound was calculated using the equation t1/2 = ln(2)/k, where k is the elimination rate constant derived from the slope obtained from the ln-concentration versus time plot.

| Substance | percentage of initial concentration remaining after incubation with microsomes | t1/2 [h] | k (elimination rate constant) |
| --- | --- | --- | --- |
| C14 surfactin C | ~95% | – | – |
| C13 surfactin C | approximately 84% | 19.25 | – |
| C16 surfactin C | ~92% | 16.5 | 0.0007 |
| C15 surfactin C | ~99% | 14.438 | 0.0008 |
